Patent US20220348590A1, “CYCLOOXYGENASE-2 INHIBITORS AND USES THEREOF” (The Board Institute, Inc., priority 2019, published 2022)
Read-outs that look alike come from different tables or passages of the source.

Key:
ovine COX-1 (oCOX-1) = target: T1, ovine COX-1 (oCOX-1) (Ovis aries, UniProt P05979); test: LCMS-based COX-1 enzymatic inhibition assay (PGE2 quantification); assay type: biochemical
T1 construct: purchased Cayman Chemicals (Ann Arbor, Mich.)
T1 sequence (P05979 25-600): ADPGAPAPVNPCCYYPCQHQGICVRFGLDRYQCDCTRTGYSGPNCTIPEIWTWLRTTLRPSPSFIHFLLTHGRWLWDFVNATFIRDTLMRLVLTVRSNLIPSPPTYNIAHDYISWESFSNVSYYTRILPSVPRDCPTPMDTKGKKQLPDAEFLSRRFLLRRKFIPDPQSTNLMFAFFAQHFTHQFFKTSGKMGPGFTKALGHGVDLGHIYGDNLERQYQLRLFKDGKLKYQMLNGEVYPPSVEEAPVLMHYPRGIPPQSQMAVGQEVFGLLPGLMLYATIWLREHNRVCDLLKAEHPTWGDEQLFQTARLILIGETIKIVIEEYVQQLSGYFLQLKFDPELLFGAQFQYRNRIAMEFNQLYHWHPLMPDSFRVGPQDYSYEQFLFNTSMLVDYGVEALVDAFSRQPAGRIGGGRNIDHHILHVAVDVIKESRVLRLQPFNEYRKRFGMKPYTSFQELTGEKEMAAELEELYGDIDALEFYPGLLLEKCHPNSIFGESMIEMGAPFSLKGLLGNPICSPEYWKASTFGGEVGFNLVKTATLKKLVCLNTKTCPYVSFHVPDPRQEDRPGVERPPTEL
Description: We have adapted a previously reported cyclooxygenase enzymatic assay utilizing LCMS quantification of PGE2 as the product of COX-1 and COX2 catalyzed conversion of arachidonic acid to evaluate the binding properties of newly synthesized ligands [Cao, 2011]. These optimized and miniaturized (384-well plates) LCMS-based COX-1 and COX2 enzymatic assays enabled us to quickly evaluate newly synthesized ligands for COX2 binding affinity and selectivity vs COX-1. Using a shorter ligand-enzyme incubation time in the LCMS assay (2 minutes vs 10 minutes) also permitted us to prioritize ligands with faster binding kinetics. Considering the relatively slow on-rate kinetics of known coxibs, due to their 3-step binding mechanism [Marnett, 2009], we believe that optimizing this critical parameter will be key to the successful development of a COX2 PET tracer. Using these enzymatic assays, we have evaluated>200 newly synthesized ligands against COX2 and >20 ligands against COX-1. Another critical property necessary for a good PET radiotracer is to have low non-specific binding (NSB) to increase the free fraction and maximize the signal to noise ratio. This property can be evaluated using in-vitro protein binding assays, and we have now evaluated>50 newly synthesized ligands in mouse, rat and human plasma protein binding (PPB) assays as well as >15 ligands in a mouse brain protein binding (BPB) assay.
Ovine COX-1 (oCOX-1), ovine COX2 (oCOX2), human recombinant COX2 (hCOX2), arachidonic acid, PGE2, d4-PGD2, and […] (labeled with deuterium atoms at positions 3 and 4) were purchased from Cayman Chemicals (Ann Arbor, Mich.). The cofactors (−)epinephrine and hematin, and the COX inhibitors indomethacin, resveratrol and diclofenac were purchased from Sigma-Aldrich (St. Louis, Mo.). Celecoxib was purchased from 3B PharmaChem International (Wuhan, China). All organic solvents were HPLC grade or better and were purchased from Thermo Fisher (Hanover Park, Ill.). Formic acid was purchased from EMD Chemicals (San Diego, Calif.). Purified water was prepared by using a Millipore Milli-Q purification system (Millipore, Billerica, Mass.). All other chemicals and solvents were ACS reagent grade, unless stated otherwise.
In an Eppendorf tube, 146 μL of 100 mM Tris.HCl (pH 8.0) buffer, 2 μL of 100 μM hematin (co-factor) and 10 μL of 40 mM L-epinephrine (co-factor) were mixed at room temperature. Next, 20 μL of Tris.HCl (pH 8.0) buffer containing 0.2 μg COX2 or 0.1 μg COX-1 (approximately 1 unit of enzyme; 1 unit COX utilizes 1 nmol 02/mg/min at 37° C.) was added, and the solution was incubated at room temperature for 2 min. A 2 μL aliquot of the COX inhibitor in DMSO was added to the enzyme solution and preincubated at 37° C. for 10 min. Negative controls were identical except that 2 μL aliquots of DMSO without inhibitor were used instead.
Each COX reaction was initiated by adding 20 μL of arachidonic acid in Tris.HCl (pH 8.0) buffer to give a final concentration of 5 μM; and the reaction was terminated after 2 min by adding 20 μL of 2.0 M HCl. The surrogate standards d4-PGE2 and d4-PGD2 (10 μL aliquot of 50 ng/mL solution in methanol) were added to correct for errors or degradation during sample handling and for variation in injection volume or instrument response during LC-MS-MS. After 30 min, PGE2, PGD2 and their surrogate standards were extracted from each incubation mixture using 800 μL hexane/ethyl acetate (50:50, v/v). The organic phase was removed, evaporated to dryness, and reconstituted in 100 μL methanol/water (50:50, v/v) for analysis using LC-MS-MS.
The concentration of PGE2 in each sample was measured using LC-MS-MS, and the percent of COX inhibition by each test solution was determined by comparing the amount of PGE2 produced in the experiment with that produced in the negative control incubation. The formation of PGD2 was measured for quality control purposes, since the levels of PGD2 should be proportional to those of PGE2. […]

[1] = target: T2, human recombinant COX2 (hCOX2) (UniProt P35354); test: LCMS-based COX2 enzymatic inhibition assay (PGE2 quantification); assay type: biochemical; set-up: COX2 2 minutes pge2/pge2d4 area ratio Avg; other: 2 minutes; readout pge2/pge2d4 area ratio; average; COX2 2 minutes pge2/pge2d4 area ratio Avg; LLE; average LLE; COX2 2 minutes pge2 area (counts) Avg; readout pge2 area (counts); other: 2 min; "ovine COX2 (oCOX2), human recombinant COX2 (hCOX2)"; details: for IC50: average
T2 sequence (P35354 1-604): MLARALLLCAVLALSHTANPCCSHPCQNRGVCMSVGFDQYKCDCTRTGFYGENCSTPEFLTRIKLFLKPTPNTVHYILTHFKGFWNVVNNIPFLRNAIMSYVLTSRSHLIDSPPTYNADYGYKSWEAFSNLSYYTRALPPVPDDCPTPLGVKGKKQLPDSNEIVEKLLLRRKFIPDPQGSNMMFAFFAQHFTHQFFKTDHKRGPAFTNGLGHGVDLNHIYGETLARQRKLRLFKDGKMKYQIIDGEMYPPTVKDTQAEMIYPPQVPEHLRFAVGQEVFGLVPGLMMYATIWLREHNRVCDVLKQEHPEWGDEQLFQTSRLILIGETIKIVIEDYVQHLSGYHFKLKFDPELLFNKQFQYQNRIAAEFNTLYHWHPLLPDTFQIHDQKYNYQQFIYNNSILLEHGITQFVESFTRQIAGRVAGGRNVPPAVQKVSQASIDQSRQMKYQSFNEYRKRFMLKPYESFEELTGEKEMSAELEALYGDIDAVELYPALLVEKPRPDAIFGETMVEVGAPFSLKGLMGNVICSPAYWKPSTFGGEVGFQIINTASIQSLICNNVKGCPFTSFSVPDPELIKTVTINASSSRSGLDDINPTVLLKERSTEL
How it was run: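 PGE2 formed from arachidonic acid (final 5 μM, 2 min) was measured by LC-MS-MS against DMSO controls. Enzyme (oCOX-1 0.1 μg or hCOX2 0.2 μg) with hematin/epinephrine cofactors at pH 8.0 was given 10 min at 37 °C with compound first. Twelve-point curves run three times gave IC50.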

[2] = 10 minutes, readout pge2/pge2d4 area ratio, average LLE
[3] = 10 minutes, readout pge2/pge2d4 area ratio, average, read-out: COX1 10 minutes pge2/pge2d4 area ratio Avg. IC50
[4] = 10 minutes, readout pge2 area (counts), average LLE
[5] = 10 minutes, readout pge2 area (counts), average, read-out: COX1 10 minutes pge2 area (counts) Avg. IC50
[6] = 2 minutes, readout pge2/pge2d4 area ratio, average LLE
[7] = 2 minutes, readout pge2/pge2d4 area ratio, read-out: COX2 2 minutes pge2/pge2d4 area ratio Avg. IC50
[8] = 2 minutes, readout pge2 area (counts), average LLE
[9] = 2 minutes, readout pge2 area (counts), read-out: COX2 2 minutes pge2 area (counts) Avg. IC50
[10] = 10 minutes, pge2/pge2d4 area ratio, head of this section not shown, inferred
[11] = 10 minutes, pge2 area (counts), head of this section not shown, inferred
[12] = 10 minutes, pge2 area (counts), head of this section not shown, inferred, read-out: COX1 10 minutes pge2 area (counts) Avg. IC50

SMILES | COX1 10 minutes pge2/pge2d4 area ratio Avg. LLE (ovine COX-1 (oCOX-1); [2]) | IC50 (ovine COX-1 (oCOX-1); [3]) [µM] | COX1 10 minutes pge2 area (counts) Avg. LLE (ovine COX-1 (oCOX-1); [4]) | IC50 (ovine COX-1 (oCOX-1); [5]) [µM] | COX2 2 minutes pge2/pge2d4 area ratio Avg. LLE [1, 6] | IC50 [1, 7] [µM] | COX2 2 minutes pge2 area (counts) Avg. LLE [1, 8] | IC50 [1, 9] [µM] | IC50 (ovine COX-1 (oCOX-1)) [µM] | COX2 10 minutes pge2 area (counts) Avg. LLE [1, 4] | IC50 ([1]; 10 minutes, readout pge2 area (counts), read-out: COX2 10 minutes pge2 area (counts) Avg. IC50) [µM] | COX1 10 minutes pge2/pge2d4 area ratio Avg. LLE (ovine COX-1 (oCOX-1); [10]) | COX1 10 minutes pge2 area (counts) Avg. LLE (ovine COX-1 (oCOX-1); [11]) | IC50 (ovine COX-1 (oCOX-1); [12]) [µM]
CS(=O)(=O)c1ccc(-c2ccc(F)c(OCc3cccs3)n2)cc1 [Compound 45] | 1.328 | 6.64 | 1.301 | 7.06 | 3.877 | 0.02 | 3.805 | 0.0232 |  |  |  |  |  | 
COc1ncc(NCc2ccccc2)nc1-c1ccc(S(C)(=O)=O)cc1 [Compound 49] | 1.734 |  | 1.734 |  | 5.235 | 0.0222 | 5.228 | 0.021 | 52 |  |  |  |  | 
CN(Cc1ccoc1)c1cccc(-c2ccc(S(C)(=O)=O)cc2)n1 [Compound 52] | 1.0149 | 51.9 | 1.014 |  | 4.377 | 0.0239 | 4.612 | 0.0133 |  |  |  |  |  | 
COc1cc(-c2ccc(S(C)(=O)=O)cc2)cc(NCc2cccs2)n1 [Compound 54] | 0.5171 | 39.2 | 0.394 | 52 | 3.727 | 0.0255 | 3.7767 | 0.0238 |  | 4.182 | 0.00943 |  |  | 
CS(=O)(=O)c1ccc(-n2ccc3ccc(NCc4cccs4)nc32)cc1 [Compound 57] |  |  |  |  | 3.1281 | 0.0306 | 3.132 | 0.0298 | 52 |  |  | −0.196 | −0.1826 | 50.4
CS(=O)(=O)c1ccc(-c2cncc(OCc3ccoc3)n2)cc1 [Compound 58] |  | 34.4 |  |  | 5.691 | 0.031 | 5.691 | 0.0309 |  |  |  | 2.5036 | 2.324 | 
COc1ncc(NCc2cccs2)nc1-c1ccc(S(C)(=O)=O)nc1 [Compound 60] |  |  |  |  | 5.902 | 0.0323 | 5.891 | 0.0334 | 52 |  |  | 2.694 | 2.694 | 
CS(=O)(=O)c1ccc(-c2ccc3ccn(Cc4ccco4)c3n2)cc1 [Compound 61] |  |  |  |  | 3.446 | 0.0333 | 3.403 | 0.037 | 52 |  |  | 0.214 | 0.214 | 
CS(=O)(=O)c1ccc(-c2ccc3cnn(Cc4cccs4)c3n2)cc1 [Compound 63] |  | 1.99 |  |  | 3.897 | 0.0351 | 3.961 | 0.0271 |  |  |  | 2.0906 | 2.128 | 1.83
COc1ncc(-c2ccc(S(N)(=O)=O)cc2)nc1NCc1cccs1 [Compound 64] |  | 5.36 |  |  | 5.595 | 0.0361 | 5.591 | 0.0366 |  |  |  | 3.4205 | 3.473 | 4.76
CS(=O)(=O)c1ccc(-c2cncc(/C=C\c3cccs3)n2)cc1 [Compound 65] |  |  |  |  | 4.704 | 0.037 | 4.681 | 0.039 | 52 |  |  | 1.544 | 1.612 | 38
